# Reference: ChEMBL document CHEMBL5252651, “Discovery of Bioactive Metabolites by Acidic Stress to a Geldanamycin Producer, Streptomyces samsunensis” (J Nat Prod, 2023)
# Activity calls are given as the source filed them. The calls are words filed in the database; no cut-off is given here.
# Tested on: Staphylococcus aureus
# Assay: Antivirulence activity against methicillin-resistant Staphylococcus aureus USA300 LAC assessed as change in Hla transcriptional level at 10 ug/ml incubated for 8 to 16 hrs by qRT-PCR analysis
# Assay type: functional, organism-based
# Conditions: dose 10.0 µg/ml, time 8-16 hrs
row,Structure (SMILES),Activity
1,CO[C@@H](C[C@H](C)Cc1cc(O)cc(NC(C)=O)c1)[C@H](O)[C@H](C)C(=O)O,inactive
2,COC1=C2C[C@@H](C)C[C@H](OC)[C@H](O)[C@@H](C)/C=C(\C)[C@H](OC(N)=O)[C@@H](OC)/C=C\C=C(/C)C(=O)NC(=CC1=O)C2=O,inactive
3,CO[C@H]1/C=C\C=C(/C)C(=O)NC2=CC(=O)C(O)=C(C[C@@H](C)C[C@H](OC)[C@H](O)[C@@H](C)/C=C(\C)[C@@H]1OC(N)=O)C2=O,inactive
